Assay results taken from PubChem BioAssay AID1013 (Columbia University Molecular Screening Center, 2008).
Active and inactive are the calls of the source. No rule for the calls is given here.

Assay: inhibitors of TNFa-induced VCAM1 expression, confirmation, imaging, TNFa stimulus, retest and dose response (AID 1013);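 as to cell count: compound on cells 1 h before TNFa then 24 h more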
Conditions: TNFa-stimulated cells, VCAM1 expression imaging; for inhibition: at 2 µM, stronger effect = higher value; for cell count: at 10 µM, stronger effect = lower value

SMILES: N#CCc1nc2c3c4c(sc3ncn2n1)CCCC4
- inhibition: 62.9% (inactive)
- cell count: 87.3%

SMILES: Cc1cccc(N=C2NC(=O)CS2)c1C
- inhibition: -7.6% (inactive)

SMILES: COc1cccc(C(=O)Nc2cccc(-c3nc4ncccc4o3)c2C)c1
- inhibition: 2.2% (inactive)

SMILES: Cc1cc(C)cc(OCC(=O)Nc2nonc2NC(=O)COc2cc(C)cc(C)c2)c1
- inhibition: 12.1% (inactive)

SMILES: COc1ccc(Oc2cc(NC(=O)c3nn(C)cc3[N+](=O)[O-])cc([N+](=O)[O-])c2)cc1
- inhibition: 74.7% (inactive)
- cell count: 114%

SMILES: CCN1C(=O)CSC1=NC12CC3CC(CC(C3)C1)C2
- inhibition: -5.9% (inactive)

SMILES: Cc1ccn2c(NC(=O)c3ccco3)c(-c3ccccc3)nc2c1
- inhibition: 3.4% (inactive)

SMILES: CCOC(=O)c1cnc(-n2nc(C)cc2C)nc1N1CCOCC1
- inhibition: 0.6% (inactive)

SMILES: COc1cc2c3c(c1OC)-c1cc(O)ccc1CC3NCC2 (stereo not drawn)
- inhibition: -7.7% (inactive)

SMILES: O=C(Oc1ccc2ccc(=O)oc2c1)N1CCOCC1
- inhibition: 1.4% (inactive)

SMILES: CCOC(=O)c1cnn(-c2nc(CC)nc3sc4c(c23)CCC4)c1N
- inhibition: -10.3% (inactive)

SMILES: CCCNS(=O)(=O)c1ccc2c(c1)CCCN2C(C)=O
- inhibition: -18.5% (inactive)

SMILES: CC1CCCN(c2nc3ccsc3c(=O)s2)C1 (stereo not drawn)
- inhibition: -1.5% (inactive)

SMILES: Cc1nc([N+](=O)[O-])c(Br)n1CC(=O)c1ccc(Br)cc1
- inhibition: 27% (inactive)
- cell count: 116%

SMILES: CCOC(=O)N1CCN(C(=O)c2ccc3c(c2)NC(=O)C(N2CCOCC2)S3)CC1 (stereo not drawn)
- inhibition: 2.1% (inactive)

SMILES: CC(C)(C)NC(=O)CSc1nsc(SCC(=O)NC(C)(C)C)c1C#N
- inhibition: 1.8% (inactive)

SMILES: CC(C)(C)SCCNC(=O)CN(c1ccc(F)cc1)S(C)(=O)=O
- inhibition: -12.2% (inactive)

SMILES: CCOc1cc(S(=O)(=O)Nc2ccccc2CC)ccc1Cl
- inhibition: -2.9% (inactive)

SMILES: CC1Oc2ccccc2C=C1/C=C1/SC(N2CCOCC2)=NC1=O (stereo not drawn)
- inhibition: -2.1% (inactive)

SMILES: C/C(=N\Nc1nc2c(s1)CCCC2)c1ccccc1
- inhibition: 3.8% (inactive)

SMILES: Cc1ccc(S(=O)(=O)Nc2cc(C(=O)NCCN3CCCC3)ccc2N2CCCCC2)cc1
- inhibition: -2.2% (inactive)

SMILES: OCCN=C(c1ccccc1)C12CN3CN(CN(C3)C1)C2
- inhibition: -1.2% (inactive)

SMILES: COc1ccc(-c2nc(C#N)c(NCCCN(C)C)o2)cc1OC
- inhibition: -0.1% (inactive)

SMILES: CCOC(=O)c1cnn(-c2nc3c(C)cccc3s2)c1C
- inhibition: 11% (inactive)

SMILES: COc1ccc(-c2cc(C(=O)Nc3cc(C)n(Cc4ccc(Cl)cc4)n3)no2)cc1OC
- inhibition: 11.7% (inactive)

SMILES: CSCCC(NC(=O)OCc1ccccc1)C(=O)O (stereo not drawn)
- inhibition: 6.7% (inactive)

SMILES: CCC(=O)N1c2ccc(S(=O)(=O)CCC(=O)N3CCn4c3nc3ccccc34)cc2CC1C (stereo not drawn)
- inhibition: -14.1% (inactive)

SMILES: O=C(O)c1cccc(S(=O)(=O)Nc2ccccc2Cl)c1
- inhibition: -5.6% (inactive)

SMILES: CCn1c(CN2CCN(c3ccc(Cl)cc3)CC2)nc2ccccc21
- inhibition: 23.2% (inactive)

SMILES: CSc1ccc(S(=O)(=O)Nc2ccc3c4c(cccc24)CC3)cc1
- inhibition: 17.6% (inactive)

SMILES: COc1ccccc1-n1cnc2cc(NCc3cccs3)ccc21
- inhibition: -3.5% (inactive)

SMILES: CNC(=O)CN(c1ccc(OC)cc1)S(=O)(=O)c1ccc(F)cc1
- inhibition: 6.8% (inactive)

SMILES: Cc1cc(C(=O)NN)c2cc(Br)ccc2n1
- inhibition: -7.2% (inactive)

SMILES: C/C(Cl)=C\Cn1c(NCCCn2ccnc2)nc2c1c(=O)n(C)c(=O)n2C
- inhibition: 4.7% (inactive)

SMILES: Cc1cccc(N(CC(=O)N/N=C/c2ccc(OCC(=O)NCc3ccco3)cc2)S(C)(=O)=O)c1C
- inhibition: -4.7% (inactive)

SMILES: CCOc1ccc(C=O)cc1CN1CCCCC1
- inhibition: 1.5% (inactive)

SMILES: O=C(NCc1ccco1)c1cc(-c2ccc(Cl)cc2)on1
- inhibition: -6.2% (inactive)

SMILES: O=C(CN1CCCCCC1=O)OCc1ncc(-c2ccccc2)o1
- inhibition: 9.7% (inactive)

SMILES: CCOC(=O)Cc1csc(NC(=O)COc2ccc(N(C)S(=O)(=O)c3ccc(C)cc3)cc2)n1
- inhibition: -1.3% (inactive)

SMILES: Cc1cc(C)n(C(=O)c2ccc(NC(=O)C3COc4ccccc4O3)cc2)n1 (stereo not drawn)
- inhibition: 3.2% (inactive)

SMILES: OC1(c2cccc(C(F)(F)F)c2)CCN(c2ncnc3c2[nH]c2ccc(F)cc23)CC1
- inhibition: 1% (inactive)

SMILES: NC(=S)N/N=C/c1ccc(-c2cc(Cl)ccc2Cl)o1
- inhibition: 34.6% (inactive)
- cell count: 90.8%

SMILES: O=C(NCc1ccco1)C1CC(=O)N(c2ccc(F)cc2)C1 (stereo not drawn)
- inhibition: 6% (inactive)

SMILES: O=c1c2ccccc2nnn1CSc1ncnc2ccccc12
- inhibition: 15.2% (inactive)

SMILES: Nc1ccccc1NC(=O)c1ccccc1N
- inhibition: -3.2% (inactive)

SMILES: COc1cc(CC(=O)Nc2ncc(C)s2)cc(OC)c1OC
- inhibition: -6.6% (inactive)

SMILES: COc1cccc(C(=O)COc2cccc(NC(=O)c3cccc([N+](=O)[O-])c3)c2)c1
- inhibition: 1.6% (inactive)

SMILES: O=C1CC(c2cc(Br)ccc2F)c2cc3c(cc2N1)CCC3 (stereo not drawn)
- inhibition: 24.3% (inactive)

SMILES: O=C(O)C1CC=CCC1C(=O)N1CCCC1 (stereo not drawn)
- inhibition: -1.4% (inactive)

SMILES: O=[N+]([O-])c1cnccc1Nc1ccc(F)cc1
- inhibition: 15.4% (inactive)

SMILES: O=C1CC(c2ccccc2)Cc2nc3ncnn3cc21 (stereo not drawn)
- inhibition: -11.3% (inactive)

SMILES: Cc1ccc(N/N=C/c2ccc(N3CCOCC3)cc2)cc1C
- inhibition: -4.8% (inactive)

SMILES: Cc1nn(-c2cc(C)c3ccccc3n2)c2c1C1C(C2)C1(C)C (stereo not drawn)
- inhibition: -11.4% (inactive)

SMILES: O=C(c1ccc(Cl)cc1)N1CCCOC1
- inhibition: -7.1% (inactive)

SMILES: Cc1cccnc1N(C(=O)Nc1ccccc1)C1=NCC(C)(C)S1
- inhibition: -11.8% (inactive)

SMILES: CCOc1ccccc1/C=N/Nc1ccccc1[N+](=O)[O-]
- inhibition: 5.1% (inactive)

SMILES: O=C1C2CCCN2C(c2cccnc2)N1c1ccc(Cl)c(Cl)c1 (stereo not drawn)
- inhibition: -2.6% (inactive)

SMILES: Clc1ccc(-n2ncc3c(NCc4ccc5c(c4)OCO5)ncnc32)cc1
- inhibition: 5.1% (inactive)

SMILES: CCNC(=O)CCn1nc(-c2ccc(Cl)cc2)c2ccccc2c1=O
- inhibition: -0.3% (inactive)

SMILES: Cc1ccccc1-c1cc(-c2ccccc2O)on1
- inhibition: 25.2% (inactive)

SMILES: C/C(=C\C(=O)c1cccnc1)Nc1ccc(C)c(C)c1
- inhibition: -15.6% (inactive)

SMILES: CCCc1[nH]nc2c1C(c1cccnc1)C(C#N)=C(N)O2 (stereo not drawn)
- inhibition: -7.9% (inactive)

SMILES: N=C1C(c2nc3ccccc3s2)=C(O)CN1Cc1ccco1
- inhibition: -3% (inactive)

SMILES: Cc1cc(NC(=O)C2C3C=CC(C3)C2C(=O)O)no1 (stereo not drawn)
- inhibition: -1.8% (inactive)

SMILES: CCOC(=O)Cn1nnnc1CN(CCc1ccccc1)Cc1cc2cc(CC)ccc2[nH]c1=O
- inhibition: 3.3% (inactive)

SMILES: CC1=NNC(=O)/C1=C\c1cn(-c2ccccc2)nc1-c1ccc(Cl)cc1
- inhibition: -15.6% (inactive)

SMILES: O=C(Oc1csc(=S)n1C(=O)c1ccccc1)c1ccccc1
- inhibition: 4% (inactive)

SMILES: OCCNCC(O)Cn1ccc2ccccc21 (stereo not drawn)
- inhibition: -5.6% (inactive)

SMILES: CCOc1ccc(N2C(=O)CSC2c2ccncc2)cc1 (stereo not drawn)
- inhibition: 0% (inactive)

SMILES: CCCn1c(SCC(=O)NCc2ccco2)nnc1C(C)C
- inhibition: -9.8% (inactive)

SMILES: O=C(O)C1CCC(N2C(=O)C3CCCCC3C2=O)CC1 (stereo not drawn)
- inhibition: 12.7% (inactive)

SMILES: CCOC(=O)C1=C(c2ccccc2)OC(N)=C(C#N)C1c1ccco1 (stereo not drawn)
- inhibition: 13.3% (inactive)

SMILES: Clc1ccc(C2=Nn3c(nnc3-c3cccnc3)SC2)s1
- inhibition: 13% (inactive)

SMILES: COC(=O)c1sccc1NC(=O)c1ccc(Br)s1
- inhibition: 4% (inactive)
